US20260207514A1, “Clofazimine Mini-Tablets for Treatment of Tuberculosis in Pediatrics” (Via Therapeutics, LLC, priority 2022, published 2026)
In brackets after ≈: the same amount, converted by molar mass. Like-named read-outs stand apart in the source and are kept apart here.

How the values were obtained:
[1] = physchem; type: physicochemical; conditions: thermodynamic from solid, read-out: CFZ saturation solubility
[2] = Particle size distribution of milled powder by laser diffraction; type: physicochemical; conditions: jet-milled powder, RODOS 4 bar
Protocol: Clofazimine (CFZ) (Midas Pharma GmbH) was micronized by Lonza Group AG using a 10-inch spiral jet mill at 3 kg/hr feed rate and 100 psi grinding pressure. Particle size distribution of the milled powder was determined using a laser diffractor (HELOS, Sympatec GmbH) with RODOS dry powder disperser set at 4 bar dispersion pressure and 20% rotation.

[3] = Stress testing of micronized CFZ with excipient blends (compatibility, HPLC assay and related substances); type: physicochemical
Protocol: Clofazimine degradation was assessed using the high pressure liquid chromatography (HPLC) method published in the United States Pharmacopeia monograph for the drug (U.S.P., 2021) The mobile phase consisted of a 65:35 mixture of acetonitrile and an aqueous buffer consisting of 4.5 g/L sodium dodecyl sulfate, 1.7 g/L tetrabutylammonium hydrogen sulfate and 21.8 g/L Na2HPO4 adjusted to pH 3.0. Flow rate was 1.0 mL/min and infection volume was 20 μL. A LiChromspher® RP-8 100 column (250×4.6, 5 μm) (Millipore Sigma) was used. Measurements were performed using an Agilent 1100 HPLC with diode array detector set at 280 nm. […] Hydrophobic PTFE 0.22 μm filters were used for sample filtration prior to analysis.
Stress testing of micronized CFZ in combination with commercially available tableting excipient blends was performed to establish potential mechanisms of drug degradation and streamline excipient selection for mini-tablet preparation. Two different blends were assessed: Prosolv® EasyTab SP (JRS Pharma) and Ludipress® (BASF).
Additionally, Eudragit® E PO was assessed, as a potential candidate for functional coating of the mini-tablets to prevent CFZ release in the saliva and subsequent staining of the mouth. Binary mixtures of micronized CFZ and excipient blends and micronized CFZ and Eudragit E PO were prepared at 1:1 weight ratios. Blends of CFZ with Prosolv EasyTab SP, Ludipress, or Eudragit E PO were left open or in closed HPDE vials and stored for 18 days at 70° C./20% relative humidity (RH) or 70° C./75% RH, which was the thermal equivalent of 6 months of storage. As a control, micronized CFZ alone and each excipient blend alone were stored open at each condition.
HPLC analysis was performed on day 0 for CFZ alone and CFZ with each excipient, as well as on day 18 for the same samples at each temperature and humidity condition. Assay values (% recovery) for all samples was determined by comparing peak area to a reference standard and correcting for sample water content measured by Karl Fischer titration method, and related substances were reported by relative retention time (RRT) to the reference CFZ peak.

[4] = 1 mg/kg per day, average 105.6 days, average age 5.8 years; cited from earlier work

SMILES: CC(C)/N=c1\cc2n(-c3ccc(Cl)cc3)c3ccccc3nc-2cc1Nc1ccc(Cl)cc1 [CFZ, clofazimine]
- solubility ([1]; fassgf or other biorelevant, in FaSSGF): 0.092 ± 0.004 µg/mL (≈ 0.194 µM)
- solubility ([1]; fassgf or other biorelevant, in FeSSGF): 20.1 ± 1.86 µg/mL (≈ 42.5 µM)
- solubility ([1]; fessif, in FeSSIF): 14.9 ± 1.5 µg/mL (≈ 31.5 µM)
- X10 diameter [2]: 0.66 μm
- X50 diameter [2]: 1.47 μm
- X90 diameter [2]: 3.50 μm
- Impurity (% Area) RRT 0.82 ([3]; 70 C./20% RH, Open, 18 days): 0.113 % Area
- Impurity (% Area) RRT 0.88 ([3]; 70 C./20% RH, Open, 18 days): 0.117 % Area
- Impurity (% Area) RRT 0.82 ([3]; 70 C./75% RH, Open, 18 days): 0.096 % Area
- Impurity (% Area) RRT 0.88 ([3]; 70 C./75% RH, Open, 18 days): 0.126 % Area
- Impurity (% Area) RRT 0.94 ([3]; 70 C./75% RH, Open, 18 days): <0.05 % Area
- Impurity (% Area) RRT 0.82 ([3]; Initial (day 0)): 0.096 % Area
- Impurity (% Area) RRT 0.88 ([3]; Initial (day 0)): 0.109 % Area
- adverse effects [4]: limited to skin discoloration and gastrointestinal symptoms
